The record followed here is patent publication US20260263638A1, “COMPOSITIONS AND METHODS TO IMPROVE RNA PROPERTIES USING BASE, PHOSPHODIESTER LINKAGE, SUGAR BACKBONE, AND CAP MODIFICATIONS” (The Broad Institute, Inc., priority 2023, published 2026).

In data set [1] the test system is plasma alanine transaminase (ALT). The experiment in a line: In vivo toxicity assay: plasma ALT ELISA. The following applies: mice; hEPO mRNA-LNP groups. The protocol:
(§1) To evaluate the in vivo toxicity and immune response, plasma collected on day 7 post mRNA-LNP administration for the hEPO group. ALT and TNF-alpha were measured using ELISA kits for ALT [G-Biosciences, IT5508] and TNF-alpha [R&D Systems, MTA00B] per manufacturer's protocols.
In general terms: In an ELISA, binding on a coated surface is turned into a signal by an enzyme label.

Data set [2] relates to plasma tumor necrosis factor alpha (TNF-α). On the set-up: species or system mice. The following applies: mouse, in vivo. How it is done:
as §1

In data set [3] the test system is reticulocytes. The experiment in a line: Plasma reticulocyte counting by flow cytometry. Type of data set: in vivo. The conditions noted are these: mice; day 6 post-administration. How it is done:
(§2) mRNA diluted in 50 mM citrate buffer (pH 4) and lipid mix (37.5 mM in ethanol) containing 50 mol % SM-102, 10 mol % DSPC, 38.5 mol % Cholesterol, and 1.5 mol % DMG-PEG2000 were assembled into LNP using a NanoAssemblr Spark instrument [Precision Nanosystems]. Upon formulation, mRNA-LNPs were diluted in 12 mL 1×PBS solution and the buffer was exchanged by concentrating with a 30 kDa spin filter [MilliporeSigma, UFC901008] to remove residue ethanol. Concentrations and encapsulation efficiency of mRNA were determined using Quant-it RiboGreen RNA Assay Kit [ThermoFisher, R11490]. 1 μg NanoLuc or hEPO mRNA-LNP in a total volume of 100 μL was injected through retro orbital injection into each mouse. Four mice were used for each condition of each experiment (NanoLuc imaging, hEPO ELISA, and reticulocyte counting). For NanoLuc imaging, PBS injection was used as negative control. For hEPO/reticulocyte experiments, poly(C)-LNP complex was used as negative control.
10 μL […] sample was added into 1 mL of the Reticulocyte Reagent [BD Bioscience] at the indicated time points and the mixture was incubated at room temperature for 30 minutes with protection from light. The samples were analyzed with Beckman CytoFLEX LX Flow Cytometer with 100,000-event records for each sample. Thiazole orange positive cells are defined as reticulocytes.

Data set [4] can be described thus: Quantification of plasma hEPO by ELISA after mRNA-LNP injection. The following applies: mice, hEPO mRNA-LNP retro-orbital. Type of data set: in vivo. How it is done: All animal procedures followed animal care guidelines approved by the Institutional Animal Care and Use Committee (IACUC) of the Broad Institute of MIT and Harvard under animal protocol #0255-08-19. Animal experiments were conducted in compliance with IACUC policies and NIH guidelines. The BALB/cj (male, 6~8 weeks old) mice used for in vivo NanoLuc assay in this study were purchased from The Jackson Laboratory (JAX). The C57BL/6 mice (female, 7 weeks old), used for hEPO assay in this study were purchased from The Jackson Laboratory (JAX).
as §2
At the indicated time points, approximately 100 μL of blood was collected with EDTA-coated capillary tubes from each mouse and then transferred to an EDTA-coated tube. The collected blood samples were centrifuged at 2000 g for 10 min, followed by transferring the resulting plasma into another tube. The hEPO levels in the plasma samples were measured by Human Erythropoietin (EPO) ELISA kit [LEGEND MAX, 442907]. Final concentrations for hEPO were adjusted based on the volume and dilution fold.

For “construct S20: hEPO mRNA, two LNAm7G caps, LNA-2OMe 5′ UTR, PS-2MOE_ddC tail, in LNP (SEQ ID NO: 137) (AGATAAATAAAAAA; mRNA with two LNA-m7G caps, LNA/2'-OMe UTR, PS-MOE ddC tail, in LNP, further chemistry not given here)”, the “Plasma ALT (toxicity)” value in data set [1] is given as “No significant changes”. Also, the “Plasma TNF-α (immunogenicity)” value in data set [2] is recorded as “No significant changes”. For the same substance, in data set [3], the “Increase in reticulocyte counts compared to poly(C)-LNP-treated group” value worked out at 64% and the “Reticulocytes, % of total red blood cells” value is reported as 6.4±0.2%. In data set [4], the “Plasma hEPO expression remained detectable until” value turned out to be 6 days and the “Time of peak plasma hEPO expression” value turned out to be 6 h. The “Peak plasma hEPO expression” value in data set [4] (6 hours) stood at 6009±578 mlU/mL.
